Measurements taken from US20260206761A1, “HETEROARYL-TRIAZOLE COMPOUNDS AS PESTICIDES” (Bayer Aktiengesellschaft, priority 2019, published 2026).

Tests used:
Type in all cases: in vivo
[1] = test system: fall armyworm larvae (Spodoptera frugiperda); experiment: Spodoptera frugiperda spray test; conditions: 168 h, read-out: activity (mortality)
Method: Spodoptera frugiperda—Spray Test
Solvent: 78.0 parts by weight acetone • 1.5 parts by weight dimethylformamide
(§1) Emulsifier: alkylarylpolyglycol ether
(§2) To produce a suitable preparation of active compound, 1 part by weight of active compound is mixed with the stated amount of solvents and is diluted with water, containing an emulsifier concentration of 1000 ppm, to the desired concentration. Further test concentrations are prepared by dilution with emulsifier containing water.
Maize (Zea mays) leaf sections are sprayed with a preparation of the active ingredient of the desired concentration. Once dry, the leaf sections are infested with fall armyworm larvae (Spodoptera frugiperda).
After 7 days mortality in % is determined. 100% means all caterpillars have been killed and 0% means none of the caterpillars have been killed.

[2] = test system: larvae of the banded cucumber beetle (Diabrotica balteata); experiment: Diabrotica balteata spray test; conditions: 168 h, after 7 days, read-out: activity (efficacy: seedlings grown); for pest or weed control at 100 g/ha: application rate 100 g/ha (=32 pg/well); for pest or weed control at 500 g/ha: application rate 500 g/ha (=160 pg/well)
Method: Diabrotica balteata—spray test
(§3) Solvent: 78.0 parts by weight of acetone • • 1.5 parts by weight of dimethylformamide
as §1
as §2, with “solvent,” for “solvents”, “and the concentrate” for “and”
Soaked wheat seeds (Triticum aestivum) are placed in a multiple well plate filled with agar and some water and are incubated for 1 day to germinate (5 seeds per well). The germinated wheat seeds are sprayed with a test solution containing the desired concentration of the active ingredient. Afterwards each unit is infected with 10-20 larvae of the banded cucumber beetle (Diabrotica balteata).
After 7 days efficacy in % is determined. 100% means all the seedlings have grown up like in the untreated, uninfected control; 0% means none of the seedlings have grown.

[3] = test system: Rhipicephalus microplus larvae (strain Parkhurst, resistant against synthetic pyrethroids); experiment: Rhipicephalus (Boophilus) microplus in-vitro contact test, larval cattle tick; conditions: after 48 hours, read-out: activity (efficacy: larvae dead or moribund); for pest or weed control at 100 g/ha: application rate 1 pg/cm^2 (=100 g/ha); for pest or weed control at 500 g/ha: application rate 5 pg/cm^2 (=500 g/ha)
Method: Rhipicephalus (Boophilus) microplus—In-Vitro Contact Tests Larval Cattle Tick (Strain Parkhurst. Resistant Against Synthetic Pyrethroids)
(§4) 9 mg compound is solved in 1 mL acetone and diluted with acetone to the desired concentration. 250 μL of the test solution is filled in 25 mL glass test tubes and homogeneously distributed on the inner walls by rotation and tilting on a shaking device (2 h at 30 rpm). With a compound concentration of 900 ppm, an inner surface of 44.7 cm^2 and a homogeneous distribution, a dose of 5 μg/cm^2 is achieved.
After the solvent has evaporated, each test tube is filled with 20-50 cattle tick larvae (Rhipicephalus microplus), closed with a perforated lid and incubated in a horizontal position at 85% relative humidity and 27° C. in an incubator. After 48 hours efficacy is determined. The larvae are patted on the ground of the tubes and negative geotactic behaviour is recorded.
An efficacy of 100% means all larvae are dead or moribund; 0% means no larvae are dead or moribund.

[4] = test system: adult brown dog ticks (Rhipicephalus sanguineus); experiment: Rhipicephalus sanguineus in-vitro contact test, adult brown dog ticks; conditions: after 48 hours, read-out: activity (efficacy: ticks dead or moribund); for pest or weed control at 100 g/ha: application rate 1 pg/cm^2 (=100 g/ha); for pest or weed control at 5 µg/cm2, 500 g/ha: application rate 5 μg/cm^2 (=500 g/ha)
Method: Rhipicephalus sanguineus—In-Vitro Contact Tests with Adult Brown Dog Ticks
as §4
After the solvent has evaporated, each test tube is filled with 5-10 adult brown dog ticks (Rhipicephalus sanguineus), closed with a perforated lid and incubated in a lying position at room temperature and relative humidity. After 48 hours efficacy is determined. The ticks are patted on the ground of the tubes and are incubated on a heating plate at 45-50° C. for at most 5 minutes. Immotile or uncoordinated moving ticks, which are not able to escape the heat by climbing upwards, are marked as dead or moribund.
An efficacy of 100% means all ticks are dead or moribund; 0% means no ticks are dead or moribund.

[5] = test system: larvae of the southern green stink bug (Nezara viridula); experiment: Nezara viridula spray test; conditions: 96 h, after 4 days; for mortality at 500 g/ha: application rate 500 g/ha
Method: Nezara viridula—Spray Test
as §3, §1
as §2, with “solvent,” for “solvents”, “and the concentrate” for “and”
Barley plants (Hordeum vulgare) infested with larvae of the southern green stink bug (Nezara viridula) are sprayed with a test solution containing the desired concentration of the active ingredient.
After 4 days mortality in % is determined. 100% means all the stink bugs have been killed; 0% means none of the stink bugs have been killed.

[6] = test system: adult engorged female ticks (Rhipicephalus microplus); experiment: Rhipicephalus (Boophilus) microplus injection test; conditions: 168 h, egg deposition after 7 days, read-out: activity (efficacy: infertile eggs); for pest or weed control at 4 pg: application rate 4 pg/animal; for pest or weed control at 0.02 mg: application rate 20 μg/animal
Method: Rhipicephalus (Boophilus) microplus—Injection Test
Solvent: dimethyl sulfoxide
To produce a suitable preparation of active compound, 10 mg of active compound are dissolved in 0.5 mL solvent, and the concentrate is diluted with solvent to the desired concentration.
Five adult engorged female ticks (Rhipicephalus microplus) are injected with 1 μL compound solution into the abdomen. The ticks are transferred into replica plates and incubated in a climate chamber.
After 7 days egg deposition of fertile eggs is monitored. Eggs where fertility is not visible are stored in a climate chamber till hatching after about 42 days. An efficacy of 100% means all eggs are infertile; 0% means all eggs are fertile.

[7] = test system: green peach aphid (Myzus persicae); experiment: Myzus persicae oral test; conditions: 120 h, application rate 4 ppm, after 5 days
Method: Solvent: 100 parts by weight acetone
To produce a suitable preparation of active compound, 1 part by weight of active compound is mixed with the stated amount of solvent, and the concentrate is diluted with water to the desired concentration.
50 μL compound solution is filled in microtiter plates and 150 μL IPL41 insect medium (33%+15% sugar) is added to obtain a total volume of 200 μL per well. Afterwards the plates are sealed with parafilm through which a mixed population of the green peach aphid (Myzus persicae) can suck on the compound preparation.
After 5 days mortality in % is determined. 100% means all aphids have been killed and 0% means none of the aphids have been killed.

SMILES | mortality at 100 g/ha [1] | pest or weed control at 100 g/ha [2] | pest or weed control at 100 g/ha [3] | pest or weed control at 500 g/ha [3] | also measured
C[C@H](NC(=O)c1cc(C(F)F)cc(S(C)(=O)=O)c1)c1nc(C2CC2)nn1-c1ccc(Cl)cn1 [I-57] | 100% | 100% | 100% | 100% | pest or weed control at 100 g/ha [4]: 100%; pest or weed control at 5 µg/cm2, 500 g/ha [4]: 80%; mortality at 100 g/ha ([5]; application rate 100 g/ha): 100%; mortality at 500 g/ha [5]: 90%
C[C@H](NC(=O)c1cc(OC(F)(F)F)cc(C2CC2)c1)c1nc(C2CC2)nn1-c1ccc(C#N)cn1 [I-37] |  | 100% | 100% | 100% | pest or weed control at 4 pg [6]: 100%
C[C@H](NC(=O)c1cc(C(F)(F)F)cc(S(C)(=O)=O)c1)c1nc(C2CC2)nn1-c1ccc(Cl)cn1 [I-68] | 100% | 100% |  |  | mortality at 4 ppm [7]: 100%
CC(NC(=O)c1cc(C(F)(F)F)n(C)n1)c1nc(I)nn1-c1ncccn1 (centres unmarked) [I-42] |  | 100% | 100% | 100% | 
COc1nc([C@H](C)NC(=O)c2cc(Br)cc(C3CC3(F)F)c2)n(-c2ccc(C#N)cn2)n1 (some centres unmarked) [I-72] | 100% |  | 100% | 90% | mortality at 500 g/ha [5]: 90%
CC(C)S(=O)(=O)c1cc(Cl)cc(C(=O)N[C@@H](C)c2nc(C3CC3)nn2-c2ccc(C#N)cn2)c1 [I-14] |  |  | 100% | 100% | pest or weed control at 4 pg [6]: 100%; pest or weed control at 0.02 mg [6]: 100%; pest or weed control at 100 g/ha [4]: 80%; pest or weed control at 5 µg/cm2, 500 g/ha [4]: 80%
COc1nc([C@H](C)NC(=O)c2cc(Cl)cc(S(=O)(=O)C(F)F)c2)n(-c2ccc(Cl)cn2)n1 [I-53] | 100% | 100% |  |  | mortality at 4 ppm [7]: 100%
COc1nc([C@H](C)NC(=O)c2cc(OC(F)F)cc(C3CC3)c2)n(-c2ccc(C#N)cn2)n1 [I-74] | 100% | 80% | 100% | 100% | mortality at 4 ppm [7]: 100%
CCOc1nc([C@H](C)NC(=O)c2csc(Cl)c2)n(-c2ccc(C#N)cn2)n1 [I-10] |  |  |  |  | pest or weed control at 0.02 mg [6]: 80%; pest or weed control at 500 g/ha [2]: 100%
C[C@H](NC(=O)c1cc(OC(F)F)cc(S(=O)(=O)C2CC2)c1)c1nc(C2CC2)nn1-c1ccc(C#N)cn1 [I-86] | 100% | 100% |  |  | mortality at 500 g/ha [5]: 100%
COc1nc([C@H](C)NC(=O)c2cc(OC(F)(F)F)cc(S(=O)(=O)C3CC3)c2)n(-c2ccc(C#N)cn2)n1 [I-92] | 100% |  |  |  | mortality at 500 g/ha [5]: 90%
COc1nc([C@H](C)NC(=O)c2cc(Cl)cc(S(=O)(=O)C3CC3)c2)n(-c2ccc(C#N)cn2)n1 [I-87] | 100% |  |  |  | mortality at 500 g/ha [5]: 100%
CC(C)Oc1nc([C@H](C)NC(=O)c2cc(Cl)cc(S(C)(=O)=O)c2)n(-c2ccc(C#N)cn2)n1 [I-11] | 100% |  | 90% | 80% | pest or weed control at 4 pg [6]: 100%; pest or weed control at 0.02 mg [6]: 100%; mortality at 500 g/ha [1]: 83%; pest or weed control at 500 g/ha [2]: 80%
C[C@H](NC(=O)c1cc(OC(F)(F)F)cc(S(=O)(=O)C2CC2)c1)c1nc(C2CC2)nn1-c1ccc(C#N)cn1 [I-90] | 100% | 100% |  |  | mortality at 500 g/ha [5]: 100%
CC(C)Oc1nc([C@H](C)NC(=O)c2csc(Cl)c2)n(-c2ccc(C#N)cn2)n1 [I-12] |  |  |  |  | pest or weed control at 0.02 mg [6]: 80%
COc1nc([C@H](C)NC(=O)c2cc(F)cc(S(C)(=O)=O)c2)n(-c2ccc(C#N)cn2)n1 [I-73] | 100% | 100% |  |  | 
COc1nc([C@H](C)NC(=O)c2cc(OC(F)(F)F)cc(C3CC3)c2)n(-c2ccc(Cl)cn2)n1 [I-46] |  | 100% |  |  | 
Cc1nc([C@H](C)NC(=O)c2sccc2C(F)(F)F)n(-c2ccc(C#N)cn2)n1 [II-10] |  |  |  | 90% | 
COc1nc([C@H](C)NC(=O)c2cc(Cl)cc(S(=O)(=O)C(F)(F)F)c2)n(-c2ccc(C#N)cn2)n1 [I-54] | 100% |  | 100% | 100% | mortality at 4 ppm [7]: 100%
C[C@H](NC(=O)c1cc(Br)cc(C(C)(C)C)c1)c1nncn1-c1ccc(C#N)cn1 [II-2] |  |  |  |  | pest or weed control at 4 pg [6]: 100%; pest or weed control at 0.02 mg [6]: 100%; mortality at 500 g/ha [1]: 100%; pest or weed control at 500 g/ha [2]: 100%
COc1nc([C@H](C)NC(=O)c2cc(C(F)F)cc(S(C)(=O)=O)c2)n(-c2ccc(C#N)cn2)n1 [I-89] | 100% |  |  |  | mortality at 500 g/ha [5]: 100%
CC(NC(=O)c1cc(OC(F)(F)F)cc(C2CC2)c1)c1nc(Cl)nn1-c1ccc(C#N)cn1 (centres unmarked) [I-85] |  | 100% | 90% | 90% | 
COc1nc([C@H](C)NC(=O)c2cc(Cl)cc(S(=O)(=O)C3CC3)c2)n(-c2ccc(Cl)cn2)n1 [I-62] | 100% | 100% |  |  | mortality at 4 ppm [7]: 100%
C[C@H](NC(=O)c1cc(Cl)cc(S(=O)(=O)C(F)(F)F)c1)c1nc(C2CC2)nn1-c1ccc(C#N)cn1 [I-40] | 100% | 100% | 100% | 100% | pest or weed control at 4 pg [6]: 100%
C[C@H](NC(=O)c1cc(C2CC2)cc(S(C)(=O)=O)c1)c1nc(C2CC2)nn1-c1ccc(C#N)cn1 [I-49] | 100% |  | 100% | 100% | mortality at 4 ppm [7]: 100%
COc1nc([C@H](C)NC(=O)c2cc(Cl)cc(S(C)(=O)=O)c2)n(-c2ncc(Cl)cn2)n1 [I-78] | 100% | 100% |  |  | 
CC(NC(=O)c1cc(Br)cc(C2(C(F)(F)F)CC2)c1)c1nc(Cl)nn1-c1ccc(C#N)cn1 (centres unmarked) [I-50] |  |  | 80% | 90% | 
